According to PubChem BioAssay AID1963840 (Molecular Pharmacology Branch, DTP, NCI, 2024):
pIC50: −log10 of the molar value.

Test system: 695427-040-R-J1-PDC complex spheroid viability
Test: Anticancer human tumor 695427-040-R-J1-PDC patient-derived colon adenocarcinoma cell line growth inhibition [POLQ]
Conditions: for pIC50: curve of first compound; for viability, T/C: stronger effect = lower value
Outline: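 Growth inhibition in 3D: complex spheroids (tumor PDC, HUVEC, MSC) treated with POLQ inhibitor combinations; where Cmax unknown, highest tested concentration 10 microM, except SN-38 at 1 microM.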

[1] = second compound 0.0316 µM, first compound 0.0316 µM
[2] = second compound 0.0316 µM, first compound 0.1 µM
[3] = second compound 0.0316 µM, first compound 0.316 µM
[4] = second compound 0.0316 µM, first compound 1 µM
[5] = second compound 0.1 µM, first compound 0.0316 µM
[6] = second compound 0.1 µM, first compound 0.1 µM
[7] = second compound 0.1 µM, first compound 0.316 µM
[8] = second compound 0.1 µM, first compound 1 µM
[9] = second compound 0.316 µM, first compound 0.0316 µM
[10] = second compound 0.316 µM, first compound 0.1 µM
[11] = second compound 0.316 µM, first compound 0.316 µM
[12] = second compound 0.316 µM, first compound 1 µM
[13] = second compound 1 µM, first compound 0.0316 µM
[14] = second compound 1 µM, first compound 0.1 µM
[15] = second compound 1 µM, first compound 0.316 µM
[16] = second compound 1 µM, first compound 1 µM
[17] = second compound 3.16 µM, first compound 0.0316 µM
[18] = second compound 3.16 µM, first compound 0.1 µM
[19] = second compound 3.16 µM, first compound 0.316 µM
[20] = second compound 3.16 µM, first compound 1 µM
[21] = second compound 10 µM, first compound 0.0316 µM
[22] = second compound 10 µM, first compound 0.1 µM
[23] = second compound 10 µM, first compound 0.316 µM
[24] = second compound 10 µM, first compound 1 µM
[25] = second compound 0.0316 µM, first compound 3.16 µM
[26] = second compound 0.0316 µM, first compound 10 µM
[27] = second compound 0.1 µM, first compound 3.16 µM
[28] = second compound 0.1 µM, first compound 10 µM
[29] = second compound 0.316 µM, first compound 3.16 µM
[30] = second compound 0.316 µM, first compound 10 µM
[31] = second compound 1 µM, first compound 3.16 µM
[32] = second compound 1 µM, first compound 10 µM
[33] = second compound 3.16 µM, first compound 3.16 µM
[34] = second compound 3.16 µM, first compound 10 µM
[35] = second compound 10 µM, first compound 3.16 µM
[36] = second compound 10 µM, first compound 10 µM
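Further: spheroids exposed to compounds for seven days.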
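Wherever viability, T/C is given: 100% = DMSO vehicle control viability.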

`C=CCn1c(=O)c2cnc(Nc3ccc(N4CCN(C)CC4)cc3)nc2n1-c1cccc(C(C)(C)O)n1` + COC1C(OC(N)=O)C(O)C(Oc2ccc3c(O)c(NC(=O)c4ccc(O)c(CC=C(C)C)c4)c(=O)oc3c2C)OC1(C)C was tested, and the pIC50 (second compound 0.0316 µM) was under 6.00, the pIC50 (second compound 0.1 µM) was under 6.00 and the pIC50 (second compound 0.316 µM) was under 6.00. The pIC50 (second compound 1 µM) was under 6.00, the pIC50 (second compound 3.16 µM) was under 6.00 and the pIC50 (second compound 10 µM) was under 6.00. For the same compound, the viability, T/C (second compound 0.0316 µM, first compound 0.00316 µM) was 98.2%, the viability, T/C (second compound 0.0316 µM, first compound 0.01 µM) was 91.8% and the viability, T/C [1] was 110%. It also gave a viability, T/C [2] of 95.3%, a viability, T/C [3] of 95.5% and a viability, T/C [4] of 82.2%. The viability, T/C (second compound 0.1 µM, first compound 0.00316 µM) was 103%, the viability, T/C (second compound 0.1 µM, first compound 0.01 µM) was 103% and the viability, T/C [5] was 96.3%. It also gave a viability, T/C [6] of 102%, a viability, T/C [7] of 98.4% and a viability, T/C [8] of 80.3%. It also gave a viability, T/C (second compound 0.316 µM, first compound 0.00316 µM) of 105%, a viability, T/C (second compound 0.316 µM, first compound 0.01 µM) of 114% and a viability, T/C [9] of 103%. For the same compound, the viability, T/C [10] was 105%, the viability, T/C [11] was 91.8% and the viability, T/C [12] was 70.9%. The viability, T/C (second compound 1 µM, first compound 0.00316 µM) was 99.2%, the viability, T/C (second compound 1 µM, first compound 0.01 µM) was 98.5% and the viability, T/C [13] was 101%. The viability, T/C [14] was 96.3%, the viability, T/C [15] was 97.3% and the viability, T/C [16] was 72.4%. It also gave a viability, T/C (second compound 3.16 µM, first compound 0.00316 µM) of 92.3%, a viability, T/C (second compound 3.16 µM, first compound 0.01 µM) of 102% and a viability, T/C [17] of 106%. The viability, T/C [18] was 97.4%, the viability, T/C [19] was 95.3% and the viability, T/C [20] was 79.1%. The viability, T/C (second compound 10 µM, first compound 0.00316 µM) was 97.9%, the viability, T/C (second compound 10 µM, first compound 0.01 µM) was 95% and the viability, T/C [21] was 106%. For the same compound, the viability, T/C [22] was 101%, the viability, T/C [23] was 103% and the viability, T/C [24] was 71.7%.

In the case of `CC1COCCN1c1cc(C2(S(C)(=N)=O)CC2)nc(-c2ccnc3[nH]ccc23)n1` (stereo unspecified) + COC1C(OC(N)=O)C(O)C(Oc2ccc3c(O)c(NC(=O)c4ccc(O)c(CC=C(C)C)c4)c(=O)oc3c2C)OC1(C)C, the pIC50 (second compound 0.0316 µM) was under 5.00, the pIC50 (second compound 0.1 µM) was under 5.00 and the pIC50 (second compound 0.316 µM) was under 5.00. The pIC50 (second compound 1 µM) was under 5.00, the pIC50 (second compound 3.16 µM) was under 5.00 and the pIC50 (second compound 10 µM) was under 5.00. It also gave a viability, T/C [1] of 96.3%, a viability, T/C [2] of 101% and a viability, T/C [3] of 101%. For the same compound, the viability, T/C [4] was 101%, the viability, T/C [25] was 93.9% and the viability, T/C [26] was 86%. For the same compound, the viability, T/C [5] was 124%, the viability, T/C [6] was 89.4% and the viability, T/C [7] was 104%. It also gave a viability, T/C [8] of 96.8%, a viability, T/C [27] of 97.6% and a viability, T/C [28] of 80.8%. It also gave a viability, T/C [9] of 104%, a viability, T/C [10] of 89.7% and a viability, T/C [11] of 101%. The viability, T/C [12] was 101%, the viability, T/C [29] was 101% and the viability, T/C [30] was 81.7%. The viability, T/C [13] was 104%, the viability, T/C [14] was 105% and the viability, T/C [15] was 102%. The viability, T/C [16] was 99.3%, the viability, T/C [31] was 107% and the viability, T/C [32] was 86.5%. The viability, T/C [17] was 94.1%, the viability, T/C [18] was 90.7% and the viability, T/C [19] was 99.7%. The viability, T/C [20] was 97.1%, the viability, T/C [33] was 107% and the viability, T/C [34] was 85.9%. It also gave a viability, T/C [21] of 104%, a viability, T/C [22] of 102% and a viability, T/C [23] of 102%. For the same compound, the viability, T/C [24] was 97.7%, the viability, T/C [35] was 102% and the viability, T/C [36] was 79%.

`CCCS(=O)(=O)Nc1ccc(F)c(C(=O)c2c[nH]c3ncc(-c4ccc(Cl)cc4)cc23)c1F` + COC1C(OC(N)=O)C(O)C(Oc2ccc3c(O)c(NC(=O)c4ccc(O)c(CC=C(C)C)c4)c(=O)oc3c2C)OC1(C)C gave a pIC50 (second compound 0.0316 µM) of under 5.00, a pIC50 (second compound 0.1 µM) of under 5.00 and a pIC50 (second compound 0.316 µM) of under 5.00. It also gave a pIC50 (second compound 1 µM) of under 5.00, a pIC50 (second compound 3.16 µM) of under 5.00 and a pIC50 (second compound 10 µM) of under 5.00. For the same compound, the viability, T/C [1] was 102%, the viability, T/C [2] was 102% and the viability, T/C [3] was 98.2%. It also gave a viability, T/C [4] of 111%, a viability, T/C [25] of 116% and a viability, T/C [26] of 80.7%. The viability, T/C [5] was 103%, the viability, T/C [6] was 94.3% and the viability, T/C [7] was 108%. For the same compound, the viability, T/C [8] was 111%, the viability, T/C [27] was 107% and the viability, T/C [28] was 78.6%. For the same compound, the viability, T/C [9] was 106%, the viability, T/C [10] was 98.1% and the viability, T/C [11] was 97%. The viability, T/C [12] was 105%, the viability, T/C [29] was 118% and the viability, T/C [30] was 88.7%. For the same compound, the viability, T/C [13] was 102%, the viability, T/C [14] was 108% and the viability, T/C [15] was 102%. It also gave a viability, T/C [16] of 109%, a viability, T/C [31] of 107% and a viability, T/C [32] of 81.7%. It also gave a viability, T/C [17] of 110%, a viability, T/C [18] of 107% and a viability, T/C [19] of 100%. For the same compound, the viability, T/C [20] was 106%, the viability, T/C [33] was 109% and the viability, T/C [34] was 79.4%. For the same compound, the viability, T/C [21] was 107%, the viability, T/C [22] was 102% and the viability, T/C [23] was 91.8%. For the same compound, the viability, T/C [24] was 113%, the viability, T/C [35] was 116% and the viability, T/C [36] was 77%.
